Results from patent US20190202774A1, “BIARYL COMPOUNDS AS ANTIMICROBIAL AND CHEMOTHERAPEUTIC AGENTS” (priority 2015, published 2019).
Values after ≈ are worked out from the molar mass of the structure shown. “Also recorded” adds a separate entry of the source. Read-outs that look alike come from different tables or passages of the source.

Columns and labels:
[1] = test system: human lung airway epithelial cells (16HBE)
Protocol: (§1) Finally, toxicity of biaryl compounds was tested against human lung airway epithelial cells (16HBE), human dermal fibroblasts, and J774.A1 murine macrophages using an ALAMARBLUE® Cell Viability Assay. Biaryl compounds, C58, acetylated C58 (C58-2), C59, C59-2, C59Na, and C59Li were incubated with cells for 24 hours and an ALAMARBLUE® Cell Viability Assay was performed to determine cell viability relative to untreated controls (FIGS. 13A-13C). Cell viability curves were analyzed using non-linear curve fit to yield the inhibitory concentration at median cell survival (LD50) for all cell lines (Table 3).
(§2) Next, the toxicity of lead candidates was tested against human lung airway epithelial cells (16HBE) and human dermal fibroblasts (HDF) using an alamarBlue® Cell Viability Assay.

[2] = test system: human dermal fibroblasts (HDF)
Protocol: as §1, §2

[3] = test system: erythrocytes; settings: 50 μg/mL, two hour incubation; cited from earlier work
[4] = test system: erythrocytes from sheep blood; test: Hemolytic activity
Protocol: Toxicity of biaryl compounds was tested against erythrocytes as well as eukaryotic epithelial, dermal, and macrophage cell lines in vitro.
Toxicity of lead antimicrobial candidates was tested against erythrocytes, as well as eukaryotic epithelial and dermal cell lines in vitro.

[5] = test system: E. faecalis strains 49532 and 51575; test: MIC/MBC broth microdilution against E. faecalis; assay type: cell-based, Enterococcus faecalis
[6] = test system: R. equi strains 701+, 701−, 703, and 5331; test: MIC/MBC broth microdilution against R. equi; assay type: cell-based, Rhodococcus equi
[7] = test system: MRSA strains USA300, 0606, 0608, 0634, 0641, and 0646; test: MIC/MBC against six MRSA strains (variants of C58/C59, pH, DMSO); assay type: cell-based, Staphylococcus aureus
Protocol: Six MRSA strains, USA300, 0606, 0608, 0634, 0641, and 0646 were chosen based on their activity against biaryl compounds and vancomycin to determine structure-activity relationship of biaryl compounds. The effect of phenolic group on the activity of biaryl compounds was tested by modifying C59. First, the phenolic group was protected by acetylation to yield an acetylated C59 (C59-2) (FIG. 7B). Additional variants of C59, in the form of sodium and lithium salts were synthesized by incubation with sodium hydroxide and lithium hydroxide (FIGS. 7C and 7D). Antimicrobial activity of these deprotonated, water-soluble sodium (C59Na) and lithium (C59Li) salts, and acetylated derivative of C59 was tested against 6 MRSA strains and compared to the parent compound, C59 (FIGS. 8A-8D). Results from this comparative experiment indicate the contribution of phenolic group/phenoxide ion to the antimicrobial activity.
Further investigation into activity of these compounds under acidic pH conditions also points towards the role of phenolic group. An effective antimicrobial should be active under a wide range of pH conditions, including the physiological pH of 7.4. Localized pH in an infection is often lower than the physiological pH, and may be as low as 5.5 (Radovic-Moreno et al., 2012). Additionally, pH varies among organs (Radovic-Moreno et al., 2012). For example, pH in the bladder or on the skin is found to be between 4.5 and 8.0, or 4.0 and 5.5, respectively (Radovic-Moreno et al., 2012). […] The activity of all biaryl compounds is enhanced by at least four- to eight-fold with reduction in pH from 7.4 to 5.5.
Water soluble sodium and lithium salts of C59 (C59Na and C59Li) and their antimicrobial activity against six MRSA strains are reported above. A sodium salt of C58 (C58Na) was prepared and evaluated efficacy of this compound against these six MRSA strains. […] The poor activity of C58Na may be a result of poor stability of C58Na compared with C59Na and C59Li.

[8] = test system: MRSA strain USA 300; test: Growth curves (OD650, 18-h), MRSA USA 300; assay type: cell-based, Staphylococcus aureus; settings: stationary phase USA 300, 18-h, compared with non-treated control
Protocol: The rate of bacterial growth in presence of antimicrobial candidates, C58, C59, C59Na, or 4-76, was performed using stationary phase MRSA, USA 300 and SA LL06, or S. epidermidis, M0881, and compared with SoC antimicrobial, vancomycin. In addition, these growth rates were compared with the kill kinetics described earlier (FIGS. 4 & 5). […] A reduction in bacterial growth rate, represented by a lower absorbance at OD650, can be observed with C59 and C59Na at concentrations as low as 0.125×MIC compared with non-treated control. […] However, in the kill kinetics experiments, vancomycin fails to eradicate stationary phase MRSA at concentrations up to 2×MIC. This anomaly can be explained by the different experimental conditions between the kill kinetics and growth curve experiments; bacterial samples are grown with constant shaking on an orbital shaker for a kill kinetics experiment but not for a growth curve experiment.
Finally, the antimicrobial efficacy of enantiomers of compound 4-76 were evaluated against log-phase MRSA strain USA 300, as described earlier.

[9] = test system: A549; test: Lung cancer cell survival, A549; assay type: cell-based; settings: 72 hour incubation, non-linear curve fit
Protocol: (§3) The IC50 values generated using a non-linear curve fit with lung cancer cell lines, A549, H460, H2122, and H2073 are listed in Table 10. Experiments were performed using C58, C58-2, C59, C59-2, C119, and acetylated C119 (C119-2). […] Additionally, these concentrations are clinically achievable for treatment of lung cancer and a detailed structure activity relationship experiments needs to be performed to identify promising anticancer candidates.

[10] = test system: H460; test: Lung cancer cell survival, H460; assay type: cell-based; settings: 72 hour incubation, non-linear curve fit
Protocol: as §3

[11] = test system: MRSA SA LL06; test: Growth curves (OD650, 18-h), MRSA SA LL06; assay type: cell-based, Staphylococcus aureus; settings: SA LL06, 18-h
[12] = test system: eukaryotic cell lines tested; test: ALAMARBLUE Cell Viability Assay, LD50 quoted in text (cell line not given); settings: 24 hours; cell line not named in the sentence (Table 3 not given)
Protocol: as §1

[13] = test system: 21 S. epidermidis strains; test: MIC90/MBC90 broth microdilution against 21 S. epidermidis strains; assay type: cell-based, Staphylococcus epidermidis
Source text: We are currently in the process of evaluating the MICs and MBCs for 5-32.

[14] = test system: H2073; test: Lung cancer cell survival, H2073; assay type: cell-based; settings: 72 hour incubation, non-linear curve fit
Protocol: as §3

[15] = test system: 38 MRSA strains; settings: MH broth
[16] = test system: H2122; test: Lung cancer cell survival, H2122; assay type: cell-based; settings: 72 hour incubation, non-linear curve fit
Protocol: as §3

[17] = test system: seven S. pyogenes strains; test: MIC/MBC against panel of S. pyogenes strains; assay type: cell-based, Streptococcus pyogenes; settings: range over seven S. pyogenes strains
Protocol: The activity of compounds against Gram-positive pathogens, S. pyogenes and S. pneumoniae, identified through the preliminary screen (FIG. 15) was evaluated against a panel of these pathogens.

[18] = test system: MRSA strains USA300 and SALL06; test: Kill kinetics with stationary-phase MRSA; assay type: cell-based, Staphylococcus aureus; settings: stationary-phase USA300 and SALL06, up to 24 hours
[19] = test system: MRSA strain USA300; test: Kill kinetics with planktonic log-phase MRSA; assay type: cell-based, Staphylococcus aureus; settings: log-phase USA300, 24 hours
[20] = test system: MRSA strains SAD05 and 0632 in a biofilm; test: MBEC High-throughput biofilm assay; assay type: cell-based, Staphylococcus aureus; settings: six-hour incubation, SAD05 and 0632
[21] = test system: MRSA strain USA300; test: DiSC3(5) membrane permeabilization; assay type: cell-based, Staphylococcus aureus; settings: 0.1 and 0.5 μg/mL
Protocol: Biaryl compounds and their analogues have been reported to be membrane active agents (Isnansetyo and Kamei, 2003 and Kamei et al., 2003). An experiment was performed to verify the membrane permeabilization activity of biaryl compound. C58 using a fluorescent dye, 3,3′-Dipropylthiacarbocyanine iodide (DiSC3(5)). The fluorescence signal from DiSC3(5) is in a quenched state when it interacts with the hydrophobic region of the cell membrane. Upon disruption of the membrane, DiSC3(5) is released and regains its fluorescent activity, which is measured as a fluorescence signal (RFU).

[22] = test system: 38 MRSA strains; test: microbe, parasite or virus in culture; settings: Staphylococcus aureus
[23] = 24-h incubation, non-linear curve fit
[24] = Rhodococcus (subgen. Prescottella) equi, strain 701+
[25] = Rhodococcus (subgen. Prescottella) equi, strain 701−
[26] = Rhodococcus (subgen. Prescottella) equi, strain 703
[27] = Rhodococcus (subgen. Prescottella) equi, strain 5331

Compound	16HBE LD50 [1, 23] [µg/mL]	MBC ([5]; strain 49532) [µg/mL]	MIC ([5]; strain 49532) [µg/mL]	MBC ([5]; strain 51575) [µg/mL]	MIC ([5]; strain 51575) [µg/mL]	MBC ([6]; strain 701+) [µg/mL]	MIC ([6]; strain 701+) [µg/mL]	MBC ([6]; strain 701−) [µg/mL]	MIC ([6]; strain 701−) [µg/mL]	MBC ([6]; strain 703) [µg/mL]	MIC ([6]; strain 703) [µg/mL]	MBC ([6]; strain 5331) [µg/mL]	MIC ([6]; strain 5331) [µg/mL]	lowest concentration with reduction in bacterial growth rate (lower OD650) [8] [×MIC]	A549 LD50 [9] [µM]	H460 LD50 [10] [µM]	lowest concentration with reduction in bacterial growth rate [11] [×MIC]	LD50 (inhibitory concentration at median cell survival) [12] [µg/mL]	H2073 LD50 [14] [µM]	H2122 LD50 [16] [µM]	other results
Gramicidin D [reference compound]	20.5																				Fibroblasts LD50 [2, 23]: 3.9 µg/mL; hemolysis [3]: 60%; concentration resulting in 100% hemolysis ([4]; 1-h incubation): 48000 ng/mL; onset of hemolysis ([4]; 1-h incubation): 2 µg/mL
[Na+].[Na+].[O-]c1c(Cl)cc(Cl)cc1-c1cc(Cl)cc(Cl)c1[O-] [C59Na]	30	24	12	24	12	16	2	32	8	8	1	8	2	0.125							activity in the absence of DMSO versus with 2.5% DMSO [7]: at least comparable activity; antimicrobial activity (MIC and MBC) compared to the parent compound [7]: enhanced activity; also recorded: superior activity over C59
Oc1c(Cl)cc(Cl)cc1-c1cc(Cl)cc(Cl)c1O [C59]		16 (≈ 49.4 µM)	8 (≈ 24.7 µM)	16 (≈ 49.4 µM)	8 (≈ 24.7 µM)	4 (≈ 12.3 µM)	2 (≈ 6.17 µM)	16 (≈ 49.4 µM)	2 (≈ 6.17 µM)	8 (≈ 24.7 µM)	2 (≈ 6.17 µM)	4 (≈ 12.3 µM)	2 (≈ 6.17 µM)	0.125	123	37	0.125	40	43	91	MBC90 ([13]; 21 S. epidermidis strains): 12 µg/mL (≈ 37 µM); MIC90 ([13]; 21 S. epidermidis strains): 4 µg/mL (≈ 12.3 µM); MBC90 [15]: 6 µg/mL (≈ 18.5 µM); MIC90 [15]: 2 µg/mL (≈ 6.17 µM); MBCs [17]: 12 to 24 µg/mL; MICs [17]: 2 to 12 µg/mL; eradication of stationary-phase bacteria [18]: continues to eradicate bacteria; concentration of complete killing [19]: 8 µg/mL; dose response of bacterial eradication [19]: dose-dependent manner; lowest concentration with reduction in bacterial burden ([19]; compared with untreated bacteria): 0.5 µg/mL
C[C@@H]1[C@H](O)[C@@H](C)/C=C/C=C/C=C/C=C/C=C/C=C/C=C/[C@H](O[C@@H]2O[C@H](C)[C@@H](O)[C@H](N)[C@@H]2O)C[C@@H]2O[C@](O)(C[C@@H](O)C[C@@H](O)[C@H](O)CC[C@@H](O)C[C@@H](O)CC(=O)O[C@H]1C)C[C@H](O)[C@H]2C(=O)O [Amphotericin B, reference compound]																					16HBE LD50 ([1]; human, 24 h): 12.6 µg/mL; Fibroblasts LD50 ([2]; human, 24 h): 2.2 µg/mL; concentration resulting in 100% hemolysis ([4]; sheep, 1 h): 8000 ng/mL; onset of hemolysis ([4]; sheep, 1 h): 2 µg/mL
Oc1c(Br)cc(Br)cc1-c1cc(Br)cc(Br)c1O [C58, bromophene]				12 (≈ 23.9 µM)	6 (≈ 12 µM)										120	42	0.125	60	32	98	MBC ([5]; Enterococcus faecalis): 12 µg/mL (≈ 23.9 µM); MIC ([5]; Enterococcus faecalis): 6 µg/mL (≈ 12 µM); MIC90 ([13]; Staphylococcus epidermidis): 2 µg/mL (≈ 3.99 µM); MBC ([13]; Staphylococcus epidermidis, read-out: MBC90): 8 µg/mL (≈ 15.9 µM); concentration that completely eradicates bacteria in a biofilm [20]: 16 µg/mL; MBC [6, 24]: 4 µg/mL (≈ 7.97 µM); MIC [6, 24]: 1 µg/mL (≈ 1.99 µM); MBC [6, 25]: 8 µg/mL (≈ 15.9 µM); MIC [6, 25]: 1 µg/mL (≈ 1.99 µM); MBC [6, 26]: 8 µg/mL (≈ 15.9 µM); MIC [6, 26]: 0.5 µg/mL (≈ 0.996 µM); MBC [6, 27]: 4 µg/mL (≈ 7.97 µM); MIC [6, 27]: 1 µg/mL (≈ 1.99 µM); membrane disruption (DiSC3(5) fluorescence) [21]: positive membrane disruption; MIC90 [22]: 2 µg/mL (≈ 3.99 µM); MBC ([22]; read-out: MBC90): 4 µg/mL (≈ 7.97 µM); onset of hemolysis ([4]; sheep, 1 h): > 64 µg/mL; onset of hemolysis ([4]; sheep, 18 h): 16 to 20 µg/mL
COc1c(C)cc(O)c(-c2c(O)ccc3ccccc23)c1C																					melting point: 190 to 191 °C
